The values that follow come from PubChem BioAssay (NCI).

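Cells were grown in 96-well plates and exposed to each compound for 48 hours at five concentrations; endpoints were interpolated linearly between bracketing concentrations, or set to the highest concentration if not reached. Here, GI50 denotes the concentration required for 50% inhibition of growth. TGI is the concentration that stops growth completely.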 Some results are limits rather than exact numbers.

What all share (test): NCI tumour cell line growth inhibition, 48 h
The test system of test [1] is OVCAR-5 ovarian.
Test [2] relates to MALME-3M melanoma.
Test [3] concerns A549 NSCLC.
Test [4] relates to A498 renal.
Test [5] concerns SNB-19 CNS.
The test system of test [6] is SW-620 colon.
Test [7] relates to UACC-62 melanoma.
For test [8], the system named is HOP-92 NSCLC.
For test [9], the system named is HCT-116 colon.
In test [10] the test system is KM20L2 colon.

With `CC(/C=C/c1ccc([N+](=O)[O-])o1)=N/N1CC(CN2CCOCC2)OC1=O` (centres undefined), the TGI is above 100 µM in [1]; 41.3 µM in test [2]; 98.5 µM in [3]; 83.9 µM in [4]; above 100 µM in [5]; 77.3 µM in [6]. For the same molecule, the values for the TGI in test [7], in test [8] and in test [9] were 52.3 µM, 30.5 µM and 56.4 µM, respectively.
On to `CCOc1ccc(/C=C/[N+](=O)[O-])cc1`, for which the GI50 is 6.31 µM in [1]; 19 µM in [2]; 12.6 µM in [3]; 2.79 µM in test [4]; 8.95 µM in test [5]; 3.15 µM in test [6]. For the same molecule, the results for the GI50 in test [7], in [8] and in test [9] were 13.8 µM, 12.9 µM and 1.93 µM, respectively. For the same molecule, the TGI in [1] is 19.8 µM; in test [2] it was 36.9 µM; in test [3], 27.7 µM; in test [4] it was 11.5 µM; in test [5], 22 µM; in test [6], 11.9 µM. For the same molecule, the TGI in [7] was determined as 27.2 µM; in test [8], 28.1 µM; in [9], 3.55 µM.
Consider `CC(C)=CC(=O)OC1C2C(C)C(=O)OC2C(O)C(C)C2C=CC(=O)C21C` (centres undefined), for which the TGI in [1] came out at 12.9 µM; in test [2], 8.28 µM; in test [3], 33.6 µM; in test [10], 7.76 µM; in test [4], 3.29 µM; in [5] it was 17.4 µM. Also, the TGI in test [6] was 5.29 µM; in [7], 4.64 µM; in test [8], 8.85 µM; in test [9], 4.69 µM.
Take `O=C(Nc1ccc(Cl)cc1)/C(Cc1cccc[n+]1[O-])=N\Nc1ccc([N+](=O)[O-])cc1[N+](=O)[O-]`: the TGI in [1], in test [2], in test [3], in test [10], in test [4] and in test [5] was above 100 µM each time. For the same molecule, the TGI in test [6], in test [7], in [8] and in test [9] was above 100 µM throughout.
Take `Cc1cccc2c(N)c3cccc(C(=O)NCCN(C)C)c3nc12`: the TGI turned out to be 0.723 µM in test [1]; 0.606 µM in [2]; 3.5 µM in test [3]; 0.516 µM in test [4]; 0.227 µM in test [7]; 2.94 µM in [8]. The molecule further displayed a TGI in test [9] of 2.38 µM.
`COc1ccc(/C=N/NC(=O)NCCCN(C)C)cc1`: the TGI in test [2], in test [3], in test [4], in test [5], in [6] and in test [7] was above 100 µM each time. Besides, the TGI in test [9] was above 100 µM.
`O=C1Nc2ccccc2Nc2nc3cccccc-3c21`: the TGI in [1], in test [2], in [3], in [10], in test [5] and in [6] was above 100 µM each time. Further, the TGI in test [7], in test [8] and in test [9] was above 100 µM throughout.
For `CN1CCN(Cc2ccc(NC(=O)c3ccc(C#N)c(C#Cc4cnc(N)c5ncccc45)c3)cc2C(F)(F)F)CC1`, the GI50 is 1.71 µM in test [1]; 3.25 µM in test [4]; 3.87 µM in [5]; 1.73 µM in [7]; 12.2 µM in [8]. The TGI in test [1] was 3.34 µM; in test [4], 10.6 µM; in test [5], above 100 µM; in [7], 3.26 µM; in [8] it was 58.1 µM.
Regarding `c1ccc2c(c1)nc1n2CSC1`, the TGI in [2], in test [10], in test [4], in [5], in test [6] and in [7] was above 100 µM each time. In addition, the TGI in test [8] was above 100 µM.
`CCOP(=O)(OCC)C(Cc1ccc(OC)c(OC)c1)N=C(c1ccccc1)c1ccccc1` (centres undefined): the TGI in [1], in [3], in test [4], in test [5], in test [6] and in test [7] was above 100 µM each time. The TGI in [8] and in [9] was above 100 µM throughout.
Take `COc1c2c(cc3c(CCc4ccccc4)cc(=O)oc13)CCC(C)(C)O2`: the TGI in test [1], in test [2], in test [10], in test [6], in test [7] and in test [8] was above 100 µM each time. This molecule also gave a TGI in test [9] above 100 µM.
In the case of `CC1(C)CCc2cc3c(-c4ccccc4)cc(=O)oc3cc2O1`, the TGI in [2], in [10], in [4], in [5], in test [6] and in test [7] was above 100 µM throughout. The molecule further yielded a TGI in test [8] of 72.3 µM.
Turning to `Cc1nc2ccccc2c(=O)n1CC(=O)O`, the TGI in test [1], in test [2], in test [3], in test [10], in test [4] and in [5] was above 100 µM in each case. The TGI in [6], in test [7], in test [8] and in test [9] was above 100 µM throughout.
